From PubChem BioAssay (NCI) come the findings set out here.

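Grown in 96-well plates, cells were treated for 48 hours with each compound at five concentrations. Insufficient inhibition: endpoint recorded as highest concentration tested. TGI: concentration producing complete growth inhibition.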

Among the test systems are 786-0 renal; CCRF-CEM leukemia; HCC-2998 colon; HL-60(TB) leukemia; HOP-62 NSCLC; IGROV1 ovarian; MCF7 breast; MOLT-4 leukemia; NCI-H226 lung; RXF 393 renal; SF-268 CNS; UACC-62 melanoma.
What all share (assay): NCI-60 cell line screen, 48 h

In the case of `O=P1(Cc2ccccc2)N(Cc2ccccc2)[C@@H]2CCCC[C@H]2N1Cc1ccccc1`, the TGI is 27.2 µM with 786-0 renal; 32.3 µM with CCRF-CEM leukemia; 22 µM with HCC-2998 colon; 19.8 µM in the experiment on HL-60(TB) leukemia; 32.2 µM in the experiment on HOP-62 NSCLC; 19.4 µM with IGROV1 ovarian. Moreover, the TGI with MCF7 breast came out at 23.3 µM; with MOLT-4 leukemia, 8.44 µM; with NCI-H226 lung, 4.63 µM; in the experiment on RXF 393 renal it was 26.9 µM; with SF-268 CNS, 24.3 µM; in the experiment with UACC-62 melanoma, 20.6 µM.
With `CCCCCCCCCCCC(=O)OC[C@@H](C[As](=O)(O)O)OC(=O)CCCCCCCCCCC`, the TGI with 786-0 renal was 26.5 µM; with CCRF-CEM leukemia, more than 94.4 µM; with HCC-2998 colon, 20.1 µM; with HL-60(TB) leukemia it was more than 30 µM; in the experiment on HOP-62 NSCLC, 28.8 µM; in the experiment on IGROV1 ovarian, 3.8 µM. Further, the TGI was 9.24 µM in the experiment with MCF7 breast; more than 77.2 µM in the experiment with MOLT-4 leukemia; 34.1 µM in the experiment on NCI-H226 lung; 6.99 µM in the experiment on RXF 393 renal; more than 32.2 µM with SF-268 CNS; 6.94 µM in the experiment on UACC-62 melanoma.
As for `OC(C/C=N/N=C/CC(O)(C(F)(F)Cl)C(F)(F)Cl)(C(F)(F)Cl)C(F)(F)Cl`, the TGI with 786-0 renal, in the experiment on CCRF-CEM leukemia, in the experiment on HCC-2998 colon, in the experiment with HL-60(TB) leukemia, in the experiment on HOP-62 NSCLC and in the experiment with IGROV1 ovarian was more than 10 µM throughout. In addition, the TGI with MCF7 breast, in the experiment on MOLT-4 leukemia, with NCI-H226 lung, with RXF 393 renal, with SF-268 CNS and in the experiment on UACC-62 melanoma was more than 10 µM each time.
As for `C=CC1(CC[C@]2(c3ccc(OC)c(OC)c3)C=[N+]([O-])O[C@H](O[C@@H]3CCCC[C@H]3C(C)(C)c3ccccc3)C2)OCC(C)(C)CO1`, the TGI in the experiment on 786-0 renal is more than 45.8 µM; in the experiment with CCRF-CEM leukemia, 23.8 µM; with HCC-2998 colon it was 31.3 µM; in the experiment on HL-60(TB) leukemia, 4.81 µM; in the experiment on HOP-62 NSCLC, 36.5 µM; in the experiment on IGROV1 ovarian, 23.7 µM. The TGI with MCF7 breast was more than 42.4 µM; in the experiment on MOLT-4 leukemia, 21.6 µM; with NCI-H226 lung, 38 µM; in the experiment with RXF 393 renal, more than 48.4 µM; in the experiment with SF-268 CNS it was 52.1 µM; in the experiment with UACC-62 melanoma, 33.9 µM.
Take `CS(=O)(=O)N1CC(CCl)c2ccc(O)cc21` (configuration not stated): the TGI was 11.6 µM in the experiment with 786-0 renal; 23.8 µM in the experiment with CCRF-CEM leukemia; 4.2 µM in the experiment on HCC-2998 colon; 6.19 µM in the experiment on HL-60(TB) leukemia; 13 µM with HOP-62 NSCLC; 4.5 µM with IGROV1 ovarian. The TGI in the experiment with MCF7 breast is more than 100 µM; in the experiment on MOLT-4 leukemia, more than 100 µM; in the experiment on NCI-H226 lung, 6.83 µM; in the experiment with RXF 393 renal it was 4.19 µM; in the experiment with SF-268 CNS, 3.61 µM; in the experiment on UACC-62 melanoma, 28.7 µM.
As for `O=[N+]([O-])c1c(F)c(F)c2c(c1F)N(CCCCCl)c1ccccc1S2`, the TGI in the experiment with 786-0 renal stood at 23.8 µM; in the experiment with CCRF-CEM leukemia, 6.35 µM; in the experiment with HCC-2998 colon, 8.48 µM; in the experiment with HL-60(TB) leukemia, 5.7 µM; with HOP-62 NSCLC, 38.3 µM; in the experiment on IGROV1 ovarian, 5.36 µM. In addition, the TGI in the experiment on MCF7 breast is 11.9 µM; with MOLT-4 leukemia, more than 21.6 µM; with NCI-H226 lung, 33.1 µM; in the experiment with RXF 393 renal it was 27.4 µM; with SF-268 CNS, 18.3 µM; with UACC-62 melanoma, 26.9 µM.
